Experiments:
SIRT1 = target: T1, SIRT1 (Homo sapiens, UniProt Q96EB6); experiment: Mass spectrometry based assay to identify modulators of SIRT1 activity (deacetylation of p53-based acetylated peptide substrate); type: biochemical; details: SIRT1 activation; for Emax: 25 min, read-out: % FOLD ACT. (percent maximum fold activation)
T1 sequence (Q96EB6 1-747): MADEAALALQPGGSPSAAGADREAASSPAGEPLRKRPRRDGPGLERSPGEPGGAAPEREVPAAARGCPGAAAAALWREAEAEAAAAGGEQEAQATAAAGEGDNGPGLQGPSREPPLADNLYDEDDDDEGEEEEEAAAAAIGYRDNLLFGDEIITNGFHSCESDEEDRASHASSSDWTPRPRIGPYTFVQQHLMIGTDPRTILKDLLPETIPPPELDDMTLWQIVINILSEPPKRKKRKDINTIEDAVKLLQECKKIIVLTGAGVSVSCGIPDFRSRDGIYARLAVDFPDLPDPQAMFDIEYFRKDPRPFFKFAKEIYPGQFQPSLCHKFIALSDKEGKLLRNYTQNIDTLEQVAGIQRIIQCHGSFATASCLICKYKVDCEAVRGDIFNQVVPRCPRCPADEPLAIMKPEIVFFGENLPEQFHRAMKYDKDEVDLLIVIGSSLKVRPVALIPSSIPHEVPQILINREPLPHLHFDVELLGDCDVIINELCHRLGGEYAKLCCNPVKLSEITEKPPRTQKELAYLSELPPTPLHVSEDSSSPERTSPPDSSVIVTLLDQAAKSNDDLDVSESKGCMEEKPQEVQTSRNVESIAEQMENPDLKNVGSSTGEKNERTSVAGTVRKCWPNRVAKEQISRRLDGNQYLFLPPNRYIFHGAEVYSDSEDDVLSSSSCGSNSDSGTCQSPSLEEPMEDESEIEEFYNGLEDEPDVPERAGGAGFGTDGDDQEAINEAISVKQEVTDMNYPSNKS
How it was run: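 His-tagged human SIRT1 (10 nM, E. coli) incubated 25 min at 25 °C with […] p53-derived acetylated 5TMR peptide and 120 μM βNAD+ in pH 8 Tris-acetate buffer, then formic acid-stopped. Mass spectrometry quantifies acetylated vs deacetylated peptide; nicotinamide and DMSO controls.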

TNF = TNF IC50 (column of Table 1; method not shown); type: cell-based

Row | Structure (SMILES) | Emax (SIRT1) [%] | EC1.5 (SIRT1) | IC50 (TNF) [µM]
1 | Cc1csc(NC(=O)N2CC(C)(C)Oc3ccc(-c4cccc(N(C)C)c4)nc32)n1 [Compound 624] | > 200 | A (EC1.5<1.0 μM) | < 20
2 | Cc1cc(NC(=O)N2CCCOc3ccc(-c4cccc(Cl)c4)nc32)cc(C)n1 [Compound 626] | > 200 | A (EC1.5<1.0 μM) | < 20
3 | Cc1cc(NC(=O)N2CCOc3ccc(-c4cccc(C#N)c4)nc32)cc(C)n1 [Compound 631] | > 200 | A (EC1.5<1.0 μM) | ≥ 20
4 | O=C(Nc1cncc(OCC(O)CO)n1)N1CCCc2ccc(-c3cccc(C(F)(F)F)c3)nc21 (stereo not drawn) [Compound 638] | > 200 | A (EC1.5<1.0 μM) | < 20
5 | O=C(Nc1ccnc(OCC(O)CO)n1)N1CCCc2ccc(-c3cccc(C(F)(F)F)c3)nc21 (stereo not drawn) [Compound 639] | > 200 | A (EC1.5<1.0 μM) | < 20
6 | Cc1cncc(NC(=O)N2CCOc3ccc(-c4cccc(N5CCCC5)c4)nc32)c1 [Compound 644] | > 200 | A (EC1.5<1.0 μM) | < 20
7 | O=C(Nc1ccncc1)N1CCCc2ccc(-c3cccc(C(F)(F)F)c3)nc21 [Compound 645] | > 200 | A (EC1.5<1.0 μM) | < 20
8 | O=C(Nc1ccccn1)N1CCCc2ccc(-c3cccc(C(F)(F)F)c3)nc21 [Compound 646] | > 200 | A (EC1.5<1.0 μM) | < 20
9 | Cc1cc(C)nc(NC(=O)N2CCCc3ccc(-c4cccc(C(F)(F)F)c4)nc32)c1 [Compound 647] | > 200 | A (EC1.5<1.0 μM) | ≥ 20
10 | O=C(Nc1cccnc1)N1CCCc2ccc(-c3cccc(Cl)c3)nc21 [Compound 653] | > 200 | A (EC1.5<1.0 μM) | ≥ 20
11 | Cc1cc(C)nc(NC(=O)N2CCCc3ccc(-c4cccc(Cl)c4)nc32)c1 [Compound 654] | > 200 | A (EC1.5<1.0 μM) | ≥ 20
12 | Cc1cc(NC(=O)N2CC(C)(C)Oc3ccc(-c4cccc(N5CC[C@H](F)C5)c4)nc32)cc(C)n1 [Compound 658] | > 200 | A (EC1.5<1.0 μM) | ≥ 20
13 | Cc1cc(NC(=O)N2CC(C)(C)Oc3ccc(-c4cccc(N5CCOCC5)c4)nc32)cc(C)n1 [Compound 659] | > 200 | A (EC1.5<1.0 μM) | < 20
14 | Cc1cncc(NC(=O)N2CC(C)(C)Oc3ccc(-c4cccc(N5CC[C@H](F)C5)c4)nc32)c1 [Compound 660, (S)-6-(3-(3-fluoropyrrolidin-1-yl)phenyl)-2,2-dimethyl-N-(5-methylpyridin-3-yl)-2H-pyrido[3,2-b][1,4]oxazine-4(3H)-carboxamide] | > 200 | A (EC1.5<1.0 μM) | ≥ 20
15 | CC1(C)CN(C(=O)Nc2cncc(F)c2)c2nc(-c3cccc(N4CC[C@H](F)C4)c3)ccc2O1 [Compound 661] | > 200 | A (EC1.5<1.0 μM) | ≥ 20
16 | Cc1cc(-c2cccc(C(F)(F)F)c2)nc2c1OCCN2C(=O)Nc1ccncc1 [Compound 662] | > 200 | A (EC1.5<1.0 μM) | < 20
17 | Cc1cc(-c2cccc(C(F)(F)F)c2)nc2c1OCCN2C(=O)Nc1ccncc1F [Compound 663] | > 200 | A (EC1.5<1.0 μM) | ≥ 20
18 | Cc1cc(C)nc(NC(=O)N2CCCc3ccc(-c4cccc(F)c4)nc32)c1 [Compound 664] | > 200 | A (EC1.5<1.0 μM) | ≥ 20

Row | Structure (SMILES) | Emax (SIRT1) [%] | EC1.5 (SIRT1) | IC50 (TNF) [µM]
19 | Cc1csc(NC(=O)N2CCOc3c(C)cc(-c4cccc(C(F)(F)F)c4)nc32)n1 [Compound 668, 8-methyl-N-(4-methylthiazol-2-yl)-6-(3-(trifluoromethyl)phenyl)-2H-pyrido[3,2-b][1,4]oxazine-4(3H)-carboxamide] | > 200 | A (EC1.5<1.0 μM) | ≥ 20
20 | Cc1cc(-c2cccc(C(F)(F)F)c2)nc2c1OCCN2C(=O)Nc1ccncn1 [Compound 669] | > 200 | A (EC1.5<1.0 μM) | ≥ 20
21 | Cc1cncc(NC(=O)N2CCOc3c(C)cc(-c4cccc(C(F)(F)F)c4)nc32)c1 [Compound 670] | > 200 | A (EC1.5<1.0 μM) | ≥ 20
22 | Cc1cc(NC(=O)N2CCOc3c(C)cc(-c4cccc(C(F)(F)F)c4)nc32)cc(C)n1 [Compound 671] | > 200 | A (EC1.5<1.0 μM) | < 20
23 | Cc1cc(C)nc(NC(=O)N2CCOc3c(C)cc(-c4cccc(C(F)(F)F)c4)nc32)c1 [Compound 672] | ≤ 200 | A (EC1.5<1.0 μM) | ≥ 20
24 | Cc1csc(NC(=O)N2CC(C)(C)Oc3ccc(-c4cccc(N5CCOCC5)c4)nc32)n1 [Compound 675] | > 200 | A (EC1.5<1.0 μM) | < 20
25 | O=C(Nc1cccc(OC[C@H](O)CO)n1)N1CCCc2ccc(-c3cccc(C(F)(F)F)c3)nc21 [Compound 678] | > 200 | A (EC1.5<1.0 μM) | ≥ 20
26 | Cc1cc(-c2cccc(C(F)(F)F)c2)nc2c1OCCN2C(=O)Nc1cccc(OCC(O)CO)n1 (stereo not drawn) [Compound 682] | > 200 | A (EC1.5<1.0 μM) | < 20
27 | Cc1cc(-c2cccc(C(F)(F)F)c2)nc2c1OCCN2C(=O)Nc1ccnc(N2CCC2)c1 [Compound 683] | > 200 | A (EC1.5<1.0 μM) | ≥ 20
28 | Cc1csc(NC(=O)N2CCOc3c(C)cc(-c4cccc(Cl)c4)nc32)n1 [Compound 684] | > 200 | A (EC1.5<1.0 μM) | ≥ 20
29 | Cc1cncc(NC(=O)N2CCOc3c(C)cc(-c4cccc(Cl)c4)nc32)c1 [Compound 688] | > 200 | A (EC1.5<1.0 μM) | ≥ 20
30 | Cc1cc(NC(=O)N2CCOc3c(C)cc(-c4cccc(Cl)c4)nc32)cc(C)n1 [Compound 689] | > 200 | A (EC1.5<1.0 μM) | ≥ 20
31 | Cc1cc(C)nc(NC(=O)N2CCOc3c(C)cc(-c4cccc(Cl)c4)nc32)c1 [Compound 690] | > 200 | A (EC1.5<1.0 μM) | ≥ 20
32 | Cc1cc(-c2cccc(Cl)c2)nc2c1OCCN2C(=O)Nc1cccc(OCC(O)CO)n1 (stereo not drawn) [Compound 691] | > 200 | A (EC1.5<1.0 μM) | < 20
33 | Cc1cc(-c2cccc(Cl)c2)nc2c1OCCN2C(=O)Nc1ccnc(N2CCC2)c1 [Compound 692] | > 200 | A (EC1.5<1.0 μM) | ≥ 20
34 | O=C(Nc1cccc(OC[C@H](O)CO)n1)N1CCOc2ccc(-c3ccc4c(c3)CCO4)nc21 [Compound 695] | > 200 | A (EC1.5<1.0 μM) | < 20
35 | O=C(Nc1cncc(OCC(O)CO)n1)N1CCOc2ccc(-c3cccc(C(F)(F)F)c3)nc21 (stereo not drawn) [Compound 696, N-(6-(2,3-dihydroxypropoxy)pyrazin-2-yl)-6-(3-(trifluoromethyl)phenyl)-2H-pyrido[3,2-b][1,4]oxazine-4(3H)-carboxamide] | > 200 | A (EC1.5<1.0 μM) | < 20

Source: patent publication US9556201B2, “Bicyclic pyridines and analogs as sirtuin modulators” (GLAXOSMITHKLINE LLC, priority 2009, dated 2017)
